Molecules are shown by their SMILES.

The series can be described thus: gradient 5% acetonitrile 3 min, to 50% in 2 min, to 85% in 15 min, held 3 min, 100 µL/min. The following applies: column: Zorbax Extend-C18 2.1 x 50 mm; eluents: water / acetonitrile, 0.1% formic acid. Summed up:
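In both positive and negative ionization mode, a quadrupole time-of-flight mass spectrometer coupled to HPLC analyzed pure standards run in mixtures of ~100 molecules. The Zorbax Extend-C18 column (2.1 × 50 mm, 1.8 μm) was operated at 100 μL/min with water and acetonitrile, each containing 0.1% formic acid. The dead volume was 40 μL and the dwell volume 900 μL. Retention time came from adduct peaks that were computationally picked and individually inspected by hand.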
`O=C(Nc1ccccn1)c1ccc(S(=O)(=O)NC2CCCC2)cc1` displayed an RP-LC retention time of 722 s. Then `Nc1cc(S(=O)(=O)N2CCCCCC2)ccc1Cl`, with 902 s; and `COC(=O)c1c(-c2ccc(C)cc2)csc1NC(=O)C1CCN(C(C)=O)CC1`, with 932 s; and `Cc1cccc2cc(-c3noc(-c4ccccc4)n3)c(NCCc3ccc(S(N)(=O)=O)cc3)nc12`, with 1440 s. On to `Cc1noc(C2CN(C(=O)Nc3cc(F)cc(F)c3)CC23CCOCC3)n1` (stereo not given), for which the RP-LC retention time was 726 s. Then `Cc1ccc(NC(=O)c2cn(C)nc2S(=O)(=O)N2CCSCC2)cc1F`, with 981 s. In turn, `CC(=O)N1CCc2nn(CC(=O)Nc3ccc(Cl)cc3F)c(=O)cc2C1` showed an RP-LC retention time of 663 s. The result for `Cc1cc(Br)ccc1NC(=O)CCc1nc(C2=CCN(C)CC2)no1` reads 642 s; that for `CN1CCN(CCSC2Cc3cc(Cl)ccc3Sc3ccccc32)CC1` (stereo not given), 761 s. As to `O=C(NCCn1ncccc1=O)c1ccc(S(=O)(=O)N2CCOCC2)cc1`, the RP-LC retention time was determined as 572 s. Then `O=C(NCc1c(F)cccc1F)C(=O)Nc1ccccc1Cl`, with 971 s. The result for `CCOC(=O)c1c(C)c(CCC(=O)N2CCN(c3ncccn3)CC2)n(C)c1C` reads 765 s. The result for `CCCc1nnc(NC(=O)c2ccc3[nH]c(C)cc(=O)c3c2)s1` reads 607 s; that for `CCCCNC(=O)CCc1c(C)n(CC)c2nc(-c3ccccc3)nn2c1=O`, 796 s; that for `O=C(NCCc1cccs1)c1cccc2c1CCN2C(=O)Nc1ccccc1`, 895 s.

With `Cc1cccc(NC(=O)Cn2cnc3onc(C)c3c2=O)c1C`, the RP-LC retention time is 754 s. The compound `O=C(CCCn1c(=O)c2cccn2c2ccc(Br)cc21)NCc1ccco1` had an RP-LC retention time of 864 s. The result for `CCN1CCn2cc(S(=O)(=O)Nc3cccc(Cl)c3)cc2C1=O` reads 728 s.

In the case of `CCCOc1cccc(C(=O)N(Cc2ccc(Br)o2)C2CCS(=O)(=O)C2)c1` (stereo not given), the RP-LC retention time stood at 1010 s.

Regarding `O=C(C1=CN(c2ccc(Br)cc2)c2cc(Cl)ccc2S1(=O)=O)N1CCOCC1`, the RP-LC retention time stood at 924 s. In turn, `CCCNC(=O)C1CCN(c2ccc(SCC(=O)Nc3c(C)cc(C)cc3C)nn2)CC1` had an RP-LC retention time of 657 s. Then `Cc1ccc(C(=O)Nc2ccc(-n3c(C)nc4ccccc4c3=O)cc2C)s1`, with 821 s; and `Cc1nnc(-c2ccc(=O)n(CC(=O)NCc3ccc(F)c(Cl)c3)c2)o1`, with 672 s; and `Cn1cnc([N+](=O)[O-])c1Sc1ncn[nH]1`, with 626 s. Take `CC(C)(CO)NC(=O)Cc1ccc(NS(=O)(=O)c2ccccc2Br)cc1`: the RP-LC retention time came to 664 s. Turning to `Cc1nnc(-c2coc(S(=O)(=O)N3CCN(c4ccccn4)CC3)c2)o1`, the RP-LC retention time was 606 s. Take `CCn1cc(C(=O)Nc2ccc(F)cc2)c(S(=O)(=O)N2CCSCC2)n1`: the RP-LC retention time was 976 s. Consider `CCCn1c(=O)sc2cc(S(=O)(=O)N3CCC(C(=O)N(C)C4CCCCC4)CC3)ccc21`, for which the RP-LC retention time is 1020 s.

The compound `COc1cc(N2CC(CNS(C)(=O)=O)OC2=O)cc(OC)c1OC` (stereo not given) returned an RP-LC retention time of 593 s.

Compound `COc1cc(C(=O)N(Cc2cccs2)C2CCS(=O)(=O)C2)cc(OC)c1OC` (stereo not given) showed an RP-LC retention time of 702 s.

Compound `Cc1nnc2ccc(S(=O)(=O)N(Cc3cccc(F)c3)c3ccccc3)cn12` showed an RP-LC retention time of 866 s. In turn, `COc1ccc(-c2noc(Cc3nnc(-c4ccccc4)o3)n2)cc1OC` returned an RP-LC retention time of 949 s. The result for `O=C(CS(=O)Cc1cnn(-c2ccccc2)c1-n1cccc1)N1CCCCCC1` (stereo not given) reads 902 s; that for `CCc1cccc(NC(=O)C2CCN(C(=O)C3Sc4ccccc4NC3=O)CC2)c1` (stereo not given), 762 s; that for `CC1CCN(CCCNC(=O)C2(O)c3ccccc3NC(=O)N2c2ccc(Cl)cc2)CC1` (stereo not given), 582 s. `O=C(NCC1CCOCC1)c1nccc2ccccc12` gave an RP-LC retention time of 717 s. The compound `CCN1CCN(S(=O)(=O)c2c(C)nn(-c3ccc(-c4ccc(C)cc4)nn3)c2C)CC1` showed an RP-LC retention time of 708 s. The result for `CN1C(=O)[C@H]2CN(Cc3ccccc3Cl)C[C@H]2C1=O` reads 600 s. In turn, `CCCCN1C(=O)C(CC(=O)N2CCOCC2)Sc2ncccc21` (stereo not given) showed an RP-LC retention time of 708 s. For `O=C(Cn1nnc2ccccc2c1=O)Nc1nc2ccccc2[nH]1`, the RP-LC retention time stood at 597 s. The result for `O=C(Nc1ccccc1)C1CCCN(S(=O)(=O)c2c[nH]c(C(=O)N3CCCC3)c2)C1` (stereo not given) reads 769 s. As to `Cc1nn(-c2nc3ccccc3[nH]2)c2c1C(=O)CC(c1cccs1)C2` (stereo not given), the RP-LC retention time turned out to be 967 s. Then `Cc1ccc(C)c(NC(=O)Cn2nc3c(Oc4ccc(C(C)C)cc4)nccn3c2=O)c1`, with 1080 s. `CCOCCCNC(=O)C(C)Oc1ccc(=O)n(-c2ccc(C)c(C)c2)n1` (stereo not given) registered an RP-LC retention time of 871 s. In turn, `Cc1ccc2ncn(C3CCN(C(=O)Nc4ccc(C)c(F)c4)CC3)c(=O)c2c1` yielded an RP-LC retention time of 851 s. Then `CNC(=O)N1CCCC(c2cccc(C(=O)NCc3cccs3)c2)C1` (stereo not given), with 719 s; and `O=C(CCn1c(=O)oc2ccccc21)Nc1nc(-c2ccccc2)cs1`, with 961 s.

`COc1cccc(CSc2ccc(-n3nc4c(c3C)CCC4)nn2)c1`: the RP-LC retention time is 1240 s.

`COc1ccccc1-c1nc(C2CC(=O)N(c3ccc(Cl)cc3)C2)no1` (stereo not given) showed an RP-LC retention time of 1020 s. Then `COc1ccccc1NC(=O)Cn1c(C)cc(-c2nnc(-c3ccc(F)cc3)o2)c1C`, with 998 s; and `Cc1ccc(NC(=O)Cc2csc3nc(-c4ccc(C)c(C)c4)cn23)cc1`, with 884 s. The result for `CCCS(=O)(=O)c1nc2ccc(NS(=O)(=O)c3ccc4c(c3)CCCC4)cc2s1` reads 1060 s.

In the case of `CC(=O)c1ccc(N2CCN(C(=O)CN3C(=O)C(C)(C)c4cc(C)ccc43)CC2)cc1`, the RP-LC retention time is 855 s.

In turn, `CNC(=O)N1CCc2nn(Cc3ccccc3)c(=O)n2CC1` returned an RP-LC retention time of 614 s.

Turning to `CN1c2cc(C(=O)NCc3ccncc3)ccc2C(=O)N2CCCCC21` (stereo not given), the RP-LC retention time was found to be 586 s. Compound `CCOc1ccc(-c2nc3ncccn3c2NCc2ccc(Cl)cc2)cc1OC` returned an RP-LC retention time of 760 s. Then `CN(C)c1cccc(-c2nc(-c3cn(-c4ccc(F)cc4)nn3)no2)c1`, with 1100 s; and `Cc1cc(NC(=O)CSc2ccc(-c3cccc([N+](=O)[O-])c3)nn2)no1`, with 752 s. For `O=C(CCC1CCCC1)NCCC1CCN(C(=O)Nc2cc(F)cc(F)c2)CC1`, the RP-LC retention time is 971 s. In turn, `CCn1c(CNC(=O)C2CCC2)nc2c1CN(C(=O)Cc1ccc(Cl)cc1)CC2` yielded an RP-LC retention time of 652 s.

(Values after the METLIN SMRT retention time set (Domingo-Almenara et al. 2019).)
